Measured values taken from article PMC9115112, “A2B adenosine receptor antagonists rescue lymphocyte activity in adenosine-producing patient-derived cancer models” (Journal for Immunotherapy of Cancer, 2022).

Tests used:
[1] = system: breast cancer patient-derived spheroid cultures; assay: Real-time imaging (IncuCyte) of breast cancer patient-derived spheroid growth; type: cell-based, human; conditions: middle antagonist concentration (12 µM in figure 2), 6 days real-time imaging
Experimental: (§1) Brightfield and phase contrast images under 4X objective were acquired every 6 hours on IncuCyte S3 system (Essen BioScience). For breast cancer patient-derived spheroid culture, 1×10^4 cells per well were seeded with A2BAR antagonist at 12 µM treatment for 6 days real time imaging. For spheroid infiltration, after the addition of CSFE-labeled autologous expanded TILs and treatment with A2BAR antagonist at 12 µM, green fluorescence images were acquired for 3 days. All spheroid invasion analysis was performed using top hat segmentation with IncuCyte software.
Figure 2 Antitumor effect of A2BAR antagonists on breast cancer patient-derived spheroid cultures. (A) Relative cell viability to untreated antagonist control spheroid cultures (n=3, mean±SD) measured by Cell-Titer Glo assay. (B) Representative real time imaging of spheroid cultures over 6 days under 4X objective, with untreated (first column) or added 12 µM concentration respective of A2BAR antagonists indicated. Red mask demarcates area with cells surrounding the spheroid. Green line indicates estimated diameter of spheroid body. (C) Relative area of the representative spheroid growth (as shown in B) normalized to day 1. Statistical analysis—2-way (A) and 1-way (C) ANOVA with Dunnett’s multiple comparisons to untreated antagonist control was performed with *p<0.05, **p<0.01, ***p<0.001, and ****p<0.0001.

[2] = system: autologous TILs and patient-derived sarcoma spheroids; assay: Spheroid infiltration by autologous TILs (real-time imaging and flow cytometry); type: cell-based, human; conditions: antagonist 12 µM, 3 days
Experimental: Spheroids were prepared using patient-derived sarcoma cell lines. 1×10^4 cells were seeded per well in 96-well ultra-low attachment plate with DMEM-F12 media containing 20% FBS and 1% PS for 5 days. 3×10^4 CSFE-labeled autologous expanded TILs, at Effector:target ratio of 3:1, were added to the spheroid at day five with A2BAR antagonism treatment at 12 µM. After 3 days, spheroid was removed and split into two groups—IN and OUT. […] Spheroids were washed with PBS at least two times. GentleMACS tumor dissociation kit (Miltenyi Biotec) was used to digest the spheroids for FC analysis.
as §1
Cell surface was stained with mouse monoclonal antihuman antibodies against CD3, CD4, CD8, CD45RA, CD56 and CD19 listed in online supplemental table 1. Cell surface antibodies and live/dead (L/D) marker were incubated with samples at 4°C for 20 min after washing two times with flow cytometry buffer containing 5% FBS in PBS. For spheroid infiltrated TIL phenotyping, digested IN and OUT spheroids were stained with cell surface marker and analyzed on NovoCyte (ACEA Bioscience) with the use of FlowJo software (Tree Star) by gating single cell based on forward and side scatters. A representative gating strategy for CD8 naïve T cells is shown in online supplemental figure 3A. Compensated flow cytometry standard (FCS) files with only live cells were concatenated for downstream tSNE analysis using the ‘cytofkit’ R package (https://github.com/JinmiaoChenLab/cytofkit).
Figure 6 Infiltration of TILs into autologous patient-derived sarcoma spheroids after A2BAR antagonist treatment. (A) Representative real-time imaging of spheroid TIL infiltration over 3 days under 4× objective. Green areas demarcate CFSE-labeled TILs infiltrated into the red boundary tumor spheroid. (B) Relative TIL infiltration into autologous spheroids (n=8 donors) measured by flow cytometer. Antagonist 12 µM was added with CSFE-labeled TILs after spheroid formation on day five. (C) Representative flow cytometry plot of CFSE positive TILs in CD73+ tumor spheroid. (D) tSNE analysis and (E) annotated pie chart of TILs within (IN) and outside of (OUT) the spheroids without treatment (n=8 donors, indicated within the pie chart). Wilcoxon Rank Sum test was performed to compare the various IN vs OUT adhesion markers. Expression of (F) CD3 T cells, (G) CD49a+ CD103+ among CD8 T cells and (H) CD69 MFI among CD4 T cells IN and OUT of the spheroids without treatment (n=8 donors). (I) Relative CD8/CD4 TIL ratio IN the spheroids. Differential expression of relative (J–L). CD49a+ CD103+ cells IN the spheroids (n=8 donors) of CD3, CD8, and CD4 TILs. Antagonist 12 µM was added for J–L. Outlier is presented as diamond shape and defined by Tukey’s rule, which is not included in statistical analysis. Box plots with minimum, first quartile, median, third quartile, and maximum are presented. Unpaired and non-parametric statistical analysis—Mann-Whitney test was performed against untreated control with *p<0.05, **p<0.01, ***p<0.001, and ****p<0.0001. CFSE, carboxyfluorescein succinimidyl ester; TIL, tumor infiltrating lymphocyte; tSNE, T-distributed stochastic neighboring embedding. TEXT PRINTED IN THE PICTURE: (C) ISAM-R56A: TILs 13.0 DOUBTS OF THE COPYIST ABOUT THIS PICTURE: Panel C, ISAM-R56A, TILs: the print is small, 13.0 could be 13.8 or 13.6 / Panel C also prints a gate label 'TILs 3.17' for the Untreated control. […]

[3] = biological target: T1, human A1AR (Homo sapiens, UniProt P30542); assay: Radioligand binding, human A1AR ([3H]DPCPX, transfected CHO cells); conditions: displacement of [3H]DPCPX, n=3, racemic mixtures
T1 construct: expressed in transfected cells; host or cells: CHO
T1 sequence (P30542 1-326): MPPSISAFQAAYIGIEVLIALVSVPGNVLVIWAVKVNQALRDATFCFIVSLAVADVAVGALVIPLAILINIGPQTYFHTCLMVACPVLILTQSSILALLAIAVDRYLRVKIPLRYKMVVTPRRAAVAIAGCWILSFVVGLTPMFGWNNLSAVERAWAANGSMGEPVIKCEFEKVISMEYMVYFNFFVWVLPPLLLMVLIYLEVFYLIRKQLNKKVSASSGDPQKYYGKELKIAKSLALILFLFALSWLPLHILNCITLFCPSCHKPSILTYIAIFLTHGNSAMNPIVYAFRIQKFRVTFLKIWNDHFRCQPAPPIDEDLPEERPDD
Experimental: The affinity and selectivity profiles of the ligands obtained was studied in vitro, radioligand binding assays, at the four human specific ARs subtypes, using experimental protocols previously described.[28–30] All ligands were prepared and tested as racemic mixtures. […] Non-specific binding was determined in the presence of R-PIA 10 µM for A1AR, NECA 50 µM for A2AAR, NECA 400 μΜ for A2BAR and R-PIA 100 μΜ for A3AR.

Ki ([3]; transfected CHO cells, read-out: Ki hA1) | Ki hA1 ([3]; human CHO cells) | SMILES | Spheroid growth over time (relative area) vs untreated control [1] | TIL infiltration into autologous sarcoma spheroids vs untreated (real-time imaging) ([2]; n=8 donors) | TIL infiltration into spheroids by flow cytometry (CSFE positive, CD73 negative TILs) [2] | TIL infiltration into autologous sarcoma spheroids vs untreated (real-time imaging) ([2]; n=8 donors, listed as ISAM–R56A) | Median increased TIL infiltration vs untreated ([2]; n=8 donors, not statistically significant)
– | – | CC1=C(C(=O)OC(C)C)C(c2ccco2)n2c(nc3ccccc32)N1 (stereo not shown) [ISAM-140, isopropyl 4-(furan-2-yl)−2-methyl-1,4-dihydrobenzo[4 5] imidazo[1,2 a]pyrimidine-3-carboxylate] | significantly affected the spheroid growth over time | did not have any effect | – | – | –
> 1000 nM | – | CC1=C(C(=O)OC(C)C)C(c2ccco2)n2c(nc3ccccc32)N1Cc1ccccc1F (stereo not shown) [ISAM-R56A] | significantly affected the spheroid growth over time | overall improved TIL infiltration | significantly enhanced TIL infiltration | improved TILs infiltration | –
– | devoid of affinity | CC1=C(C(=O)OC(C)C)C(c2ccoc2)n2c(nc3cc(Cl)ccc32)N1 (stereo not shown) [ISAM-M89A] | significantly affected the spheroid growth over time | – | – | – | 7%
